From US7335686B2, “Method and composition for treating osteoporosis” (Council of Scientific and Industrial Research, priority 2003, dated 2008)

Tested on: osteoclast precursors (murine bone marrow cells)
Assay: In vitro osteoclastogenesis assay (M-CSF + RANKL, TRAP staining)
Type: cell-based, Balb/c mice
Details: M-CSF and RANKL, TRAP-positive osteoclasts
Method: Mice were sacrificed by cervical dislocation and femora and tibiae were aseptically removed and dissected free of adherent soft tissues. The bone ends were cut, and the marrow cavity was flushed out with medium MEM from one end of the bone using a sterile 21-gauge needle. The bone marrow suspension was carefully agitated with a plastic Pasteur pipette to obtain a single-cell suspension. The cells were washed twice and resuspended (10^6 cells/ml) in αMEM containing 10% FBS. […] After 24 h, nonadherent cells were harvested and layered on a Ficoll-Hypaque gradient. Cells at the gradient interface were collected, washed and resuspended (5×10^5/ml) in αMEM containing 10% FBS. In this study, we called these stromal cell-free, M-CSF-dependent, nonadherent cells as osteoclast precursors. These osteoclast precursors were added to 96-well plates (100 μl/well) containing plastic coverslips. […] Cultures were fed every 2-3 days and after incubation for 6 days osteoclast formation was evaluated by tartrate-resistant acid phosphatase (TRAP) staining. The number of TRAP-positive multinucleated cells (MNCs) containing 3 or more nuclei was scored.
TRAP is preferentially expressed at high levels in osteoclast and is considered, especially in the mouse, to be an osteoclast marker. […] Only those cells that were strongly TRAP-positive (dark red) counted by light microscopy.

Structure (SMILES) | Effect on RANKL-induced osteoclast formation/differentiation (in words)
O=C(O)C[C@H](NS(=O)(=O)O)C(=O)O [example 3, L-aspartyl, N-sulfonic acid] | significantly inhibited osteoclast formation
O=C([O-])CC[C@H](NS(=O)(=O)[O-])C(=O)[O-].O=C([O-])CC[C@H](NS(=O)(=O)[O-])C(=O)[O-].[Ca+2].[Ca+2].[Ca+2] [compound 1, L-glutamyl-N-sulphonic acid, Ca salt] | dose dependent inhibition
